Key:
[1] = target: human inducible NO-synthase (Homo sapiens, UniProt P35228); assay: Measurement of inducible NO-synthase activity ([3H]arginine conversion); format: biochemical; conditions: crude cytosolic fraction containing human inducible NO-synthase; 0.1 μM arginine; 45 to 60 min at 37° C.; read-out: Inhibition of iNOS activity [measured as -logIC50 (mol/l)] (converted)
Procedure: The assay is performed in 96well microtiter F-plates (Greiner, Frickenhausen, FRG) in a total volume of 100 μl in the presence of 100 nM calmodulin, 226 μM CaCl2, 477 μM MgCl2, 5 μM flavin-adenine-dinucleotide (FAD), 5 μM flavin mononucleotide (FMN), 0.1 mM NADPH, 7 mM glutathione, 10 μM BH4 and 100 mM HEPES pH 7.2. Arginine concentrations are 0.1 μM for enzyme inhibition experiments. 150000 dpm of [^3H]arginine are added to the assay mixture. Enzyme reaction is started by the addition of 4 μg of a crude cytosolic fraction containing human inducible NO-synthase and the reaction mixture is incubated for 45 to 60 min at 37° C. Enzyme reaction is stopped by adding 10 μl of 2M MES-buffer pH 5.0. 50 μl of the incubation mixture are transferred into a MADP N65 filtration microtiter plate (Millipore, Eschborn, FRG) containing already 50 μl of AG-50W-X8 cation exchange resin (Biorad, München, FRG). The resin in the Na loaded form is pre-equilibrated in water and 70 μl (corresponding to 50 μl dry beads) are pipetted under heavy stirring with a 8 channel pipette into the filtration plate. After pipetting 50 μl of the enzyme reaction mixture onto the filtration plates, the plates are placed on a filtration manifold (Porvair, Shepperton, UK) and the flow through is collected in Pico scintillation plates (Packard, Meriden, CT). The resin in the filtration plates is washed with 75 μl of water (1×50 μl and 1×25 μl) which is also collected in the same plate as the sample. The total flow through of 125 μl is mixed with 175 μl of Microscint-40 scintillation cocktail (Packard) and the scintillation plate is sealed with TopSeal P-foil (Packard). Scintillation plates are counted in a scintillation counter.
For the measurement of inducible NO-synthase-inhibiting potencies of compounds increasing concentrations of inhibitors were included into the incubation mixture. IC50-values were calculated from the percent inhibition at given concentrations by nonlinear least square fitting.

Compound | IC50 [1] [nM] | melting point [°C]
COc1ccnc(CCc2nc3cc(-c4ccco4)cnc3[nH]2)c1 [Example 1, 6-Furan-2-yl-[2-(4-methoxypyridin-2-yl)ethyl]-3H-imidazo[4,5-b]pyridine] | 49 | 147 to 148
COc1ccnc(CCc2nc3cc(-c4ccoc4)cnc3[nH]2)c1 [Example 2, 6-Furan-3-yl-[2-(4-methoxypyridin-2-yl)ethyl]-3H-imidazo[4,5-b]pyridine] | 45.7 | 193 to 194
COc1ccnc(CCc2nc3cc(-c4ccncc4)cnc3[nH]2)c1 [Example 3, 2-[2-(4-Methoxypyridin-2-yl)ethyl]-6-(pyridin-4-yl)-3H-imidazo-[4,5-b]pyridine] | 55 | 237 to 238
COc1ccnc(CCc2nc3cc(-c4cccs4)cnc3[nH]2)c1 [Example 4, 2-[2-(4-Methoxypyridin-2-yl)ethyl]-6-(thiophen-2-yl)-3H-imidazo-[4,5-b]pyridine] | 24.5 | 132 to 133
COc1ccnc(CCc2nc3cc(-c4ccsc4)cnc3[nH]2)c1 [Example 5, 2-[2-(4-Methoxypyridin-2-yl)ethyl]-6-(thiophen-3-yl)-3H-imidazo-[4,5-b]pyridine] | 34.7 | 154 to 155
COc1ccnc(CCc2nc3cc(-c4ccc5[nH]ccc5c4)cnc3[nH]2)c1 [Example 6, 6-(1H-Indol-5-yl)-2-[2-(4-methoxypyridin-2-yl)ethyl)-3H-imidazo-[4,5-b]pyridine] | 49 | 241 to 242
COc1ccnc(CCc2nc3cc(-c4nc5ccccc5[nH]4)cnc3[nH]2)c1 [Example 7, 6-(1H-Benzoimidazol-2-yl)-2-[2-(4-methoxy-pyridin-2-yl)-ethyl]-3H-imidazo[4,5-b]pyridine] | 30.9 to 245 | –
COc1ccnc(CCc2nc3cc(-c4nc5cc(C)ccc5[nH]4)cnc3[nH]2)c1 [Example 8, 2-[2-(4-Methoxy-pyridin-2-yl)-ethyl]-6-(5-methyl-1H-benzoimidazol-2-yl)-3H-imidazo[4,5-b]pyridine] | 30.9 to 245 | –
COc1ccnc(CCc2nc3cc(-c4csc5ccccc45)cnc3[nH]2)c1 [Example 9, 6-Benzo[b]thiophen-3-yl-2-[2-(4-methoxy-pyridin-2-yl)-ethyl]-3H-imidazo[4,5-b]pyridine] | 30.9 to 245 | –
COc1ccnc(CCc2nc3cc(-c4cc5ccccc5o4)cnc3[nH]2)c1 [Example 10, 6-Benzofuran-2-yl-2-[2-(4-methoxy-pyridin-2-yl)-ethyl]-3H-imidazo[4,5-b]pyridine] | 30.9 to 245 | –
COc1ccnc(CCc2nc3cc(-c4cc5ccccc5s4)cnc3[nH]2)c1 [Example 11, 6-Benzo[b]thiophen-2-yl-2-[2-(4-methoxy-pyridin-2-yl)-ethyl]-3H-imidazo[4,5-b]pyridine] | 30.9 to 245 | –
COc1ccnc(CCc2nc3cc(-c4ccc(C)s4)cnc3[nH]2)c1 [Example 12, 2-[2-(4-Methoxy-pyridin-2-yl)-ethyl]-6-(5-methyl-thiophen-2-yl)-3H-imidazo[4,5-b]pyridine] | 30.9 to 245 | –
COc1ccnc(CCc2nc3cc(-c4ccc(-c5ccccc5)s4)cnc3[nH]2)c1 [Example 13, 2-[2-(4-Methoxy-pyridin-2-yl)-ethyl]-6-(5-phenyl-thiophen-2-yl)-3H-imidazo[4,5-b]pyridine] | 30.9 to 245 | –

— patent US20080125460A1, “Imidazopyridine-Derivatives As Inducible No-Synthase Inhibitors” (Altana Pharma AG, priority 2003, published 2008)
